From PubChem BioAssay AID463136 (University of Pittsburgh Molecular Library Screening Center, 2010) come the findings set out here.

Inconclusive results are not listed. The source made the active and inactive calls. How the calls were made is not given here.

Experiment [1] relates to HCS imaging, dynein-mediated cargo transport inhibition. As to the kind of experiment: dynein cargo transport inhibitors, potency, dose response, imaging, high-content imaging (AID 463136).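 Further: mouse mammary adenocarcinoma 3617.4 cells expressing GFP-tagged rat glucocorticoid receptor.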
Experiment in experiment [2]: as above
The conditions noted are these: HCS imaging, dynein-mediated cargo transport inhibition; inhibition at max concentration; at 50 µM; stronger effect = higher value.

As for `CC(C(Sc1ccccc1N)c1ccccc1)[N+](=O)[O-]` (stereo not given), the IC50 (as a rule, the point on the concentration scale where inhibition reaches its midpoint) in experiment [1] was 24.7 µM. Besides, the inhibition (commonly the drop in the measured response relative to a control, in per cent) in experiment [2] stood at 84.4%.

As for `Nc1c(C(=O)C2CC2)sc2nc(-c3ccccc3)cc(C(F)(F)F)c12`, in experiment [1], the IC50 was 31.2 µM. For the same compound, the inhibition in experiment [2] came out at 134%.

For the compound `COCCCNC(=O)c1ccc2c3c(onc13)-c1ccccc1C2=O`, in experiment [1], the IC50 was 16.7 µM. Moreover, the inhibition in experiment [2] is 98.1%.

For the compound `Nc1c(C(=O)c2cccs2)sc2nsc(SCCN3CCCCC3)c12`, in experiment [1], the IC50 was > 50 µM (inactive). Also, the inhibition in experiment [2] was found to be 11.4%.

`Cc1ccnc(N/C=C(\C#N)c2nc(-c3cccc(Br)c3)cs2)c1`: in experiment [1], the IC50 is 8.77 µM. In addition, the inhibition in experiment [2] turned out to be 102%.

With `Cc1ccc(C2=NN(C(=O)CCl)C(c3cccs3)C2)o1` (stereo not given), the IC50 in experiment [1] is 8.74 µM. Further, the inhibition in experiment [2] turned out to be 80.3%.

Regarding `CC(=O)/C=C/n1c(=S)oc2ccccc21`, the IC50 in experiment [1] was 23.4 µM. Moreover, the inhibition in experiment [2] was determined as 69.5%.

Regarding `Cc1ccc(SC(=O)c2c([N+](=O)[O-])c(C)nn2C)cc1`, the IC50 in experiment [1] was > 50 µM (inactive). Besides, in experiment [2], the inhibition is 6.09%.

In the case of `C=CCSc1nc2ccccc2n1C(=O)/C=C/c1cc(OC)c(OC)c(OC)c1`, the IC50 in experiment [1] is > 50 µM (inactive). Also, in experiment [2], the inhibition turned out to be 25.5%.

Consider `CCCCNc1c2c3c(cccc3n(C)c1=O)C(=O)c1ccccc1-2`, for which the IC50 in experiment [1] is > 50 µM (inactive). Further, the inhibition in experiment [2] was 12%.

As for `CC1=NN(c2ccccc2)C(=O)/C1=C/C=C/c1ccccc1`, the IC50 in experiment [1] is > 50 µM (inactive). Moreover, in experiment [2], the inhibition came out at 22.7%.

Consider `COc1ccc(C(=O)Cn2c(C)nc([N+](=O)[O-])c2Br)cc1`, for which the IC50 in experiment [1] was 3.56 µM. Further, the inhibition in experiment [2] came to 86.4%.

For `Cc1ccc(-n2nnnc2CCl)cc1`, the half-maximal inhibitory concentration (IC50) in experiment [1] was 12.2 µM. The inhibition in experiment [2] came to 80%.

Regarding `CCSc1nnc(-c2sc3nnc(-c4ccccc4)c(-c4ccccc4)c3c2N)o1`, in experiment [1], the IC50 was 31.3 µM. In experiment [2], the inhibition came to 134%.

On to `Cc1ccc(/C=C2/C(=O)ON=C2c2ccccc2)o1`, for which the IC50 in experiment [1] is > 50 µM (inactive). Further, in experiment [2], the inhibition was found to be 15.6%.

With `Cc1ccc(-c2cn3nc(-c4ccccc4)c(-c4ccccc4)nc3n2)cc1`, the IC50 in experiment [1] was 40.2 µM. Further, the inhibition in experiment [2] stood at 93.2%.

On to `Cc1cccc(Cn2ncc(Cl)c(Cl)c2=O)c1`, for which the IC50 in experiment [1] was 13 µM. Further, in experiment [2], the inhibition was determined as 84.7%.

Turning to `CC(=O)n1cc(N(C(=O)CCl)c2ccc([N+](=O)[O-])cc2)c2ccccc21`, in experiment [1], the IC50 was > 50 µM (inactive). Besides, the inhibition in experiment [2] is 25.2%.

Regarding `O=C1CN(C(=O)Cn2ncc(Cl)c(Cl)c2=O)c2ccccc2N1`, the IC50 in experiment [1] is 9.46 µM. Besides, the inhibition in experiment [2] was found to be 76.5%.

On to `COC(=O)c1cc(NC(=O)c2cccc(Cl)c2)c(=O)oc1/C=C/Nc1cc(C)cc(C)c1`, for which the IC50 in experiment [1] was 2.54 µM. The inhibition in experiment [2] amounted to 76.3%.

For `CCOc1ccc(-n2c(C)cc(C(=O)CCl)c2C)cc1`, the IC50 in experiment [1] is 24.9 µM. The inhibition in experiment [2] was determined as 82.2%.

With `O=C(NCc1cccnc1)/C(=C\c1ccc(-c2ccc(Cl)c(Cl)c2)o1)S(=O)(=O)c1ccccc1`, the IC50 in experiment [1] is > 50 µM (inactive). For the same compound, in experiment [2], the inhibition is 9.8%.

In the case of `CC1C/C(=C/c2ccco2)C(=O)/C(=C/c2ccco2)C1` (stereo not given), the IC50 in experiment [1] was 39.2 µM. Further, the inhibition in experiment [2] came to 64.1%.

With `Cc1ccccc1-n1sc2cc(F)ccc2c1=O`, the IC50 in experiment [1] is 13.6 µM. For the same compound, in experiment [2], the inhibition came out at 96.2%.

For `N#C/C(=C/c1ccc(N2CCCCC2)o1)C(=O)Nc1ccc(Cl)cc1`, the 50% inhibitory concentration (IC50) in experiment [1] was 40.4 µM. For the same compound, the inhibition in experiment [2] worked out at 97.4%.

Take `COc1ccc(OC)c(N2C(=O)NC(=O)/C(=C/c3ccc([N+](=O)[O-])s3)C2=O)c1`: the IC50 in experiment [1] was 12.5 µM. The inhibition in experiment [2] came to 86.6%.

`O=C(CCl)Nc1ccc(-c2ccccc2)cc1`: the half-inhibitory concentration (IC50) in experiment [1] was 14.3 µM. Also, the inhibition in experiment [2] worked out at 66%.

Consider `Nc1c(C(=O)C2CC2)sc2nc(-c3cccs3)cc(C(F)(F)F)c12`, for which, in experiment [1], the IC50 was 38.7 µM. The inhibition in experiment [2] worked out at 66.4%.

As for `O=[N+]([O-])c1c(NCCCO)cc(Sc2nc3ccccc3s2)c2nonc12`, the IC50 in experiment [1] is > 50 µM (inactive). Besides, in experiment [2], the inhibition was -7.73%.

For `CCC(=O)Nc1ccc(C(=O)Cn2ncc(Cl)c(Cl)c2=O)cc1`, in experiment [1], the IC50 was 15.7 µM. Besides, the inhibition in experiment [2] is 72.4%.

For `CCOc1ccccc1N1C(=O)CC(Sc2n[nH]c(-c3ccccc3)n2)C1=O` (stereo not given), the IC50 in experiment [1] was > 50 µM (inactive). The inhibition in experiment [2] came to 13.5%.

Consider `COc1ccc(C(=O)/C=C/C(=O)N(CC(=O)NCCC(C)C)Cc2cccs2)c(O)c1`, for which the IC50 in experiment [1] was > 50 µM (inactive). In experiment [2], the inhibition is 45.7%.

On to `Cc1ccc(CN=Cc2[nH]c3ccc(Br)c(Cl)c3c2O)cc1`, for which the IC50 in experiment [1] is 5.14 µM. In experiment [2], the inhibition came to 99.2%.

Turning to `CC(=O)c1sc2nc(-c3cccs3)cc(C(F)(F)F)c2c1N`, in experiment [1], the IC50 is 21.6 µM. For the same compound, the inhibition in experiment [2] amounted to 86%.

With `CC(C)(C)c1cnnn1-c1ccc(C(=O)CCl)cc1`, in experiment [1], the IC50 was 6.44 µM. Further, the inhibition in experiment [2] was 67.1%.
